Experimental data taken from ChEMBL document CHEMBL1141648, “Aurora kinase A inhibitors: identification, SAR exploration and molecular modeling of 6,7-dihydro-4H-pyrazolo-[1,5-a]pyrrolo[3,4-d]pyrimidine-5,8-dione scaffold” (Bioorg Med Chem Lett, 2008).

Columns and labels:
[1] = target: T1, Aurora kinase A (Homo sapiens) (UniProt O14965); test: Inhibition of Aurora A kinase at 50 uM
T1 sequence (whole entry): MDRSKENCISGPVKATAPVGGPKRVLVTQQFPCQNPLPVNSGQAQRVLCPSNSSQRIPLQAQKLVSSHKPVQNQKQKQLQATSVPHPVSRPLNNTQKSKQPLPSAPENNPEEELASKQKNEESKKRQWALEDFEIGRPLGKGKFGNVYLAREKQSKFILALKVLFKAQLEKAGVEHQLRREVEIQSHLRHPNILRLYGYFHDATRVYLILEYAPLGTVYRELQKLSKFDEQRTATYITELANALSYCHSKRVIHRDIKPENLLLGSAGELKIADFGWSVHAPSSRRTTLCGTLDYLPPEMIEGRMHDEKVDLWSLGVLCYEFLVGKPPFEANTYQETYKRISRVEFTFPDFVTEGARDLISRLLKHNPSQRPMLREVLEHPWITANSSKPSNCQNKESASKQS

[2] = target: T1, Aurora kinase A (Homo sapiens); test: Inhibition of Aurora A kinase at 10 uM
Aurora kinase A = target: T2, Aurora kinase A (Homo sapiens, UniProt O14965); test: Inhibition of Aurora A kinase
T2 sequence (O14965 whole entry): T1 sequence (whole entry)

Aurora kinase C = target: T3, Aurora kinase C (Homo sapiens, UniProt Q9UQB9); test: Inhibition of Aurora C kinase
T3 sequence (Q9UQB9 whole entry): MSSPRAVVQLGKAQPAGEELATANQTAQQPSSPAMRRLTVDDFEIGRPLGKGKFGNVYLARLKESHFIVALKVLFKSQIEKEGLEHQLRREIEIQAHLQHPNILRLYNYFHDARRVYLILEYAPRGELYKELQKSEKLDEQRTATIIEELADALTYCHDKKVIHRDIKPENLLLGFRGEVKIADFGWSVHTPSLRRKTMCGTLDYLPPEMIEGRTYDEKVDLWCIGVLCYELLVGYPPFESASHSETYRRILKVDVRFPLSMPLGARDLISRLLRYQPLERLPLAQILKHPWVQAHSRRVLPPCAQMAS

Row | Compound | inhibition [1] [%] | inhibition [2] [%] | IC50 (Aurora kinase A) [µM] | Ki (Aurora kinase C) [nM]
1 | O=C1c2[nH]c3cc(-c4ccco4)nn3c(=O)c2CN1Cc1ccc(F)cc1 | 89.8 | 24 | – | –
2 | COc1cc(CN2Cc3c([nH]c4cc(-c5ccco5)nn4c3=O)C2=O)cc(OC)c1 | 75.3 | 10.1 | – | –
3 | CC(=O)Nc1cccc(CN2Cc3c([nH]c4cc(-c5ccco5)nn4c3=O)C2=O)c1 | 87.8 | 35.8 | 18.3 | –
4 | O=C1c2c(c(=O)n3nc(-c4ccco4)cc3n2CCN2CCOCC2)CN1Cc1ccccc1 | 1.1 | 0 | – | –
5 | O=C1c2nc3cc(-c4ccccc4)nn3c(O)c2CN1Cc1ccccc1 | 47.2 | 25.9 | – | –
6 | CO[C@@H](C(=O)N1Cc2n[nH]c(NC(=O)c3ccc(N4CCN(C)CC4)cc3)c2C1)c1ccccc1 [DANUSERTIB] | – | – | – | 61
7 | O=C1c2[nH]c3cc(-c4ccco4)nn3c(=O)c2CN1CCc1ccccc1 | 83.9 | 19.6 | – | –
8 | Cn1c2c(c(=O)n3nc(-c4ccco4)cc13)CN(Cc1ccccc1)C2=O | 3.4 | 2.3 | – | –
9 | O=C1c2[nH]c3cc(-c4ccco4)nn3c(=O)c2CN1CCN1CCOCC1 | 10.7 | 0.9 | – | –
10 | O=C1c2[nH]c3cc(-c4ccco4)nn3c(=O)c2CN1Cc1ccccn1 | 79.2 | 21.6 | – | –
11 | COc1cccc(CN2Cc3c([nH]c4cc(-c5ccco5)nn4c3=O)C2=O)c1 | 90 | 29.3 | 15.2 | –
12 | O=C1c2[nH]c3cc(-c4ccco4)nn3c(=O)c2CN1Cc1cccc2ccccc12 | 79.9 | 30.4 | – | –
13 | O=C1c2[nH]c3cc(-c4cccs4)nn3c(=O)c2CN1Cc1ccccc1 | 72.3 | 29.4 | – | –
14 | O=C1c2[nH]c3cc(-c4ccco4)nn3c(=O)c2CN1Cc1ccc2c(c1)OCO2 | 75.2 | 12.3 | – | –
15 | Cc1cc2[nH]c3c(c(=O)n2n1)CN(Cc1ccccc1)C3=O | 20.8 | 1.8 | – | –
16 | COc1ccc(CN2Cc3c([nH]c4cc(-c5ccco5)nn4c3=O)C2=O)cc1OC | 70.8 | 7.8 | – | –
17 | O=C1c2nc3cc(-c4ccco4)nn3c(O)c2CN1Cc1ccccc1 | 90.2 | 35.6 | 15.1 | –
18 | O=C1c2[nH]c3cc(-c4ccco4)nn3c(=O)c2CN1CCCc1ccccc1 | 84.4 | 16.4 | – | –
19 | COc1ccc(CN2Cc3c([nH]c4cc(-c5ccco5)nn4c3=O)C2=O)cc1 | 88.2 | 42.4 | 8 | –
20 | O=C1c2[nH]c3cc(-c4ccco4)nn3c(=O)c2CN1c1ccccc1 | 73.7 | 7.6 | – | –
21 | O=C1c2[nH]c3ccnn3c(=O)c2CN1Cc1ccccc1 | 14.5 | 1.6 | – | –
22 | COc1ccccc1CN1Cc2c([nH]c3cc(-c4ccco4)nn3c2=O)C1=O | 95.1 | 51.6 | 5.6 | –
